Results published in PubChem BioAssay (NCI).
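A five-concentration, 48-hour dose response in 96-well plates underlies each endpoint, interpolated linearly between surrounding concentrations. Abbreviation: GI50, concentration required for 50% inhibition of growth. TGI marks complete inhibition of growth.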

Columns and labels:
Test in all cases: NCI tumour cell line growth inhibition, 48 h
RPMI-8226 leukemia = system: RPMI-8226 leukemia
SR leukemia = system: SR leukemia
OVCAR-5 ovarian = system: OVCAR-5 ovarian
UACC-257 melanoma = system: UACC-257 melanoma
MCF7 breast = system: MCF7 breast
BT-549 breast = system: BT-549 breast
HS 578T breast = system: HS 578T breast
SF-295 CNS = system: SF-295 CNS
MDA-MB-435 = system: MDA-MB-435
OVCAR-8 ovarian = system: OVCAR-8 ovarian
SW-620 colon = system: SW-620 colon
HCT-116 colon = system: HCT-116 colon
HCT-15 colon = system: HCT-15 colon
RXF 393 renal = system: RXF 393 renal
EKVX NSCLC = system: EKVX NSCLC
NCI-H460 lung = system: NCI-H460 lung
PC-3 prostate = system: PC-3 prostate
UACC-62 melanoma = system: UACC-62 melanoma
HT29 colon = system: HT29 colon
SK-MEL-5 melanoma = system: SK-MEL-5 melanoma
SK-MEL-28 melanoma = system: SK-MEL-28 melanoma
CCRF-CEM leukemia = system: CCRF-CEM leukemia
SF-539 CNS = system: SF-539 CNS
SN12C renal = system: SN12C renal
A498 renal = system: A498 renal
K-562 leukemia = system: K-562 leukemia
UO-31 renal = system: UO-31 renal
NCI-H23 lung = system: NCI-H23 lung
U251 CNS = system: U251 CNS
786-0 renal = system: 786-0 renal
T-47D breast = system: T-47D breast
SNB-75 CNS = system: SNB-75 CNS
A549 NSCLC = system: A549 NSCLC
TK-10 renal = system: TK-10 renal
ACHN renal = system: ACHN renal
COLO 205 colon = system: COLO 205 colon
SNB-19 CNS = system: SNB-19 CNS
SK-MEL-2 melanoma = system: SK-MEL-2 melanoma
MDA-MB-231 breast = system: MDA-MB-231 breast
NCI/ADR-RES ovarian = system: NCI/ADR-RES ovarian
KM12 colon = system: KM12 colon
NCI-H226 lung = system: NCI-H226 lung
OVCAR-3 ovarian = system: OVCAR-3 ovarian
LOX IMVI melanoma = system: LOX IMVI melanoma
HCC-2998 colon = system: HCC-2998 colon
HOP-62 NSCLC = system: HOP-62 NSCLC
DU-145 prostate = system: DU-145 prostate
HL-60(TB) leukemia = system: HL-60(TB) leukemia
MALME-3M melanoma = system: MALME-3M melanoma
SK-OV-3 ovarian = system: SK-OV-3 ovarian
NCI-H522 lung = system: NCI-H522 lung
OVCAR-4 ovarian = system: OVCAR-4 ovarian
HOP-92 NSCLC = system: HOP-92 NSCLC
MOLT-4 leukemia = system: MOLT-4 leukemia
SF-268 CNS = system: SF-268 CNS
IGROV1 ovarian = system: IGROV1 ovarian

`Cc1ccc(-c2cc(C(=O)N3N=C(c4ccc(N)cc4)CC3c3ccc(Cl)cc3)c3ccccc3n2)cc1` (configuration not stated) gave a GI50 (RPMI-8226 leukemia) of 4.1 µM, a TGI (RPMI-8226 leukemia) of over 100 µM and a GI50 (SR leukemia) of 3.29 µM. It also gave a TGI (SR leukemia) of over 100 µM, a GI50 (OVCAR-5 ovarian) of 8.43 µM and a TGI (OVCAR-5 ovarian) of over 100 µM. For the same molecule, the GI50 (UACC-257 melanoma) was 33.7 µM, the TGI (UACC-257 melanoma) was over 100 µM and the GI50 (MCF7 breast) was 2.53 µM. It also gave a TGI (MCF7 breast) of over 100 µM, a GI50 (BT-549 breast) of 3.92 µM and a TGI (BT-549 breast) of over 100 µM. For the same molecule, the GI50 (HS 578T breast) was 4.68 µM, the TGI (HS 578T breast) was over 100 µM and the GI50 (SF-295 CNS) was 3.13 µM. It also gave a TGI (SF-295 CNS) of over 100 µM, a GI50 (MDA-MB-435) of 1 µM and a TGI (MDA-MB-435) of 3.66 µM. For the same molecule, the GI50 (OVCAR-8 ovarian) was 5.25 µM, the TGI (OVCAR-8 ovarian) was over 100 µM and the GI50 (SW-620 colon) was 4.24 µM. It also gave a TGI (SW-620 colon) of over 100 µM, a GI50 (HCT-116 colon) of 3.18 µM and a TGI (HCT-116 colon) of over 100 µM. It also gave a GI50 (HCT-15 colon) of 3.33 µM, a TGI (HCT-15 colon) of over 100 µM and a GI50 (RXF 393 renal) of 1.63 µM. It also gave a TGI (RXF 393 renal) of 7.06 µM, a GI50 (EKVX NSCLC) of 3.99 µM and a TGI (EKVX NSCLC) of over 100 µM. It also gave a GI50 (NCI-H460 lung) of 3.51 µM, a TGI (NCI-H460 lung) of over 100 µM and a GI50 (PC-3 prostate) of 3.4 µM. The TGI (PC-3 prostate) was over 100 µM, the GI50 (UACC-62 melanoma) was 2.06 µM and the TGI (UACC-62 melanoma) was over 100 µM. It also gave a GI50 (HT29 colon) of 3.35 µM, a TGI (HT29 colon) of over 100 µM and a GI50 (SK-MEL-5 melanoma) of 2.5 µM. It also gave a TGI (SK-MEL-5 melanoma) of over 100 µM, a GI50 (SK-MEL-28 melanoma) of 6.23 µM and a TGI (SK-MEL-28 melanoma) of over 100 µM. For the same molecule, the GI50 (CCRF-CEM leukemia) was 4.53 µM, the TGI (CCRF-CEM leukemia) was over 100 µM and the GI50 (SF-539 CNS) was 2.43 µM. For the same molecule, the TGI (SF-539 CNS) was 8.1 µM, the GI50 (SN12C renal) was 6.84 µM and the TGI (SN12C renal) was over 100 µM. For the same molecule, the GI50 (A498 renal) was 1.64 µM, the TGI (A498 renal) was 6.5 µM and the GI50 (K-562 leukemia) was 3.09 µM. For the same molecule, the TGI (K-562 leukemia) was over 100 µM, the GI50 (UO-31 renal) was 2.2 µM and the TGI (UO-31 renal) was over 100 µM. It also gave a GI50 (NCI-H23 lung) of 5.02 µM, a TGI (NCI-H23 lung) of over 100 µM and a GI50 (U251 CNS) of 4.51 µM. For the same molecule, the TGI (U251 CNS) was over 100 µM, the GI50 (786-0 renal) was 4.22 µM and the TGI (786-0 renal) was over 100 µM. For the same molecule, the GI50 (T-47D breast) was 2.73 µM, the TGI (T-47D breast) was over 100 µM and the GI50 (SNB-75 CNS) was 1.41 µM. For the same molecule, the TGI (SNB-75 CNS) was 6.68 µM, the GI50 (A549 NSCLC) was 4.79 µM and the TGI (A549 NSCLC) was over 100 µM. It also gave a GI50 (TK-10 renal) of 8.51 µM, a TGI (TK-10 renal) of over 100 µM and a GI50 (ACHN renal) of 4.19 µM. For the same molecule, the TGI (ACHN renal) was over 100 µM, the GI50 (COLO 205 colon) was 2.8 µM and the TGI (COLO 205 colon) was 9.48 µM. It also gave a GI50 (SNB-19 CNS) of 6.51 µM, a TGI (SNB-19 CNS) of over 100 µM and a GI50 (SK-MEL-2 melanoma) of 3.81 µM. It also gave a TGI (SK-MEL-2 melanoma) of over 100 µM, a GI50 (MDA-MB-231 breast) of 3.94 µM and a TGI (MDA-MB-231 breast) of 92.2 µM. It also gave a GI50 (NCI/ADR-RES ovarian) of 2.54 µM, a TGI (NCI/ADR-RES ovarian) of over 100 µM and a GI50 (KM12 colon) of 3.46 µM. It also gave a TGI (KM12 colon) of over 100 µM, a GI50 (NCI-H226 lung) of 6.47 µM and a TGI (NCI-H226 lung) of over 100 µM. For the same molecule, the GI50 (OVCAR-3 ovarian) was 2.98 µM, the TGI (OVCAR-3 ovarian) was 36.6 µM and the GI50 (LOX IMVI melanoma) was 4 µM. It also gave a TGI (LOX IMVI melanoma) of over 100 µM, a GI50 (HCC-2998 colon) of 4.28 µM and a TGI (HCC-2998 colon) of over 100 µM. The GI50 (HOP-62 NSCLC) was 4.62 µM, the TGI (HOP-62 NSCLC) was over 100 µM and the GI50 (DU-145 prostate) was 3.68 µM. It also gave a TGI (DU-145 prostate) of over 100 µM, a GI50 (HL-60(TB) leukemia) of 3.49 µM and a TGI (HL-60(TB) leukemia) of over 100 µM. The GI50 (MALME-3M melanoma) was over 100 µM, the TGI (MALME-3M melanoma) was over 100 µM and the GI50 (SK-OV-3 ovarian) was 4.94 µM. For the same molecule, the TGI (SK-OV-3 ovarian) was over 100 µM, the GI50 (NCI-H522 lung) was 0.622 µM and the TGI (NCI-H522 lung) was 4.21 µM. For the same molecule, the GI50 (OVCAR-4 ovarian) was 4.71 µM, the TGI (OVCAR-4 ovarian) was over 100 µM and the GI50 (HOP-92 NSCLC) was 4.1 µM. It also gave a TGI (HOP-92 NSCLC) of 92.3 µM, a GI50 (MOLT-4 leukemia) of 3.23 µM and a TGI (MOLT-4 leukemia) of over 100 µM. It also gave a GI50 (SF-268 CNS) of 4.09 µM, a TGI (SF-268 CNS) of over 100 µM and a GI50 (IGROV1 ovarian) of 6.48 µM. For the same molecule, the TGI (IGROV1 ovarian) was over 100 µM.
